Several values for one entry are separate records, joined by “and”; a condition that tells them apart may be missing. Equal entries are not always repeated.
Columns and labels:
nontransgenic mice = assay: Pilot Morris water maze #1 (spatial learning and memory); conditions: for MWM training latency Trial*ISRIB (linear mixed effects regression model): 6-7 month-old nontransgenic mice; for %Target Quadrant (percent time spent in target quadrant) / Crossing Frequency (number of platform crossings) / Latency to Target / Crossing Frequency: individual mice; for Distance / Latency: Fig 2A; for Crossing Frequency: Fig 2C
[1] = ISRIB plasma levels in satellite mice (pharmacokinetic data); conditions: 2.5 hours post-administration, individual mouse
[2] = 0.25 mpk i.p. after each training trial, vs vehicle
[3] = 24-hour probe trial (Fig 2B), 0.1mpk
[4] = 24-hour probe trial (Fig 2B), 0.25mpk
[5] = 72-hour probe trial (Fig 2C), 0.1mpk
[6] = 72-hour probe trial (Fig 2C), 0.25mpk
[7] = ISRIB 0.1mpk, Trial 1, individual mice
[8] = ISRIB 0.1mpk, Trial 2, individual mice
[9] = ISRIB 0.1mpk, Trial 3, individual mice
[10] = ISRIB 0.1mpk, Trial 4, individual mice
[11] = ISRIB 0.25mpk, Trial 1, individual mice
[12] = ISRIB 0.25mpk, Trial 2, individual mice
[13] = ISRIB 0.25mpk, Trial 3, individual mice

## O=C(COc1ccc(Cl)cc1)NC1CCC(NC(=O)COc2ccc(Cl)cc2)CC1 (stereo not shown) [ISRIB]
Nontransgenic mice; 0.1 mpk i.p. after each training trial, vs vehicle
  MWM training latency Trial*ISRIB (linear mixed effects regression model): −1.2 sec/day
Nontransgenic mice; [2]
  MWM training distance Trial*ISRIB (linear mixed effects regression model): -36 cm/day
  MWM training latency Trial*ISRIB (linear mixed effects regression model): −0.9 sec/day
Nontransgenic mice; [3]
  %Target Quadrant (percent time spent in target quadrant): 44.0932% and 16.8608% and 27.6206% and 29.7282% and 34.8863% and 38.4914% and 18.802% and 29.5064% and 21.1869% and 54.6312% and 23.8491% and 29.5618% and 18.2474% and 16.6944%
  Crossing Frequency (number of platform crossings): 3 and 1 and 0 and 5 and 2
  Latency to Target: 15.4154 and 14.3143 and 9.776 and 14.281 and 10.9109 and 23.8572 and 8.075 and 28.4618 and 6.173 and 49.9833 and 54.0207 and 5.439
Nontransgenic mice; [4]
  %Target Quadrant (percent time spent in target quadrant): 41.7083% and 28.508% and 15.9179% and 23.35% and 35.33% and 30.3383% and 37.9922% and 36.7721% and 24.4038% and 36.5502% and 36.6057% and 35.6628% and 17.3045% and 11.2035% and 27.787%
  Crossing Frequency (number of platform crossings): 4 and 1 and 2 and 3 and 5
  Latency to Target: 12.5459 and 7.174 and 15.2486 and 19.2526 and 12.7795 and 12.9463 and 6.24 and 43.31 and 13.5135 and 13.6804 and 10.4438 and 8.842 and 6.84 and 29.0624 and 19.3861
Nontransgenic mice; [5]
  %Target Quadrant (percent time spent in target quadrant): 24.3483% and 20.0222% and 43.7604% and 8.4304% and 14.8641% and 36.883% and 28.6744% and 19.3012% and 32.6678% and 33.9434% and 13.6439% and 27.6206% and 18.9684% and 18.4692% and 26.345%
  Latency to Target: 47.2473 and 25.4922 and 4.571 and 12.4458 and 24.0908 and 40.0734 and 23.29 and 28.6286 and 42.042 and 38.3383 and 5.506 and 17.9513
Nontransgenic mice; [6]
  %Target Quadrant (percent time spent in target quadrant): 45.4798% and 27.066% and 23.0727% and 47.7537% and 35.4409% and 31.5031% and 40.9318% and 46.4781% and 25.5685% and 36.6057% and 27.898% and 43.3167% and 22.3516% and 17.7482% and 21.6861%
  Latency to Target: 9.843 and 17.3507 and 7.741 and 43.2432 and 4.972 and 20.1201 and 23.7237 and 4.638 and 6.24 and 11.4448 and 27.027 and 19.4194
Nontransgenic mice; 72-hour probe trial, one-way ANOVA
  latency to target and crossing frequency vs vehicle: no significant improvement
Nontransgenic mice; [7]
  Distance: 2362.83 and 2250.62 and 2496.09 and 1947.39 and 1168.96 and 2236.97 and 2411.54 and 2035.59 and 1921.1 and 2456.98 and 2337.83 and 2068.76 and 2366.51 and 2250.12 and 2342.92
  Latency: 120.12 and 115.716 and 120.153 (11×) and 70.7374 and 112.312
Nontransgenic mice; [8]
  Distance: 2488.72 and 412.271 and 2629.01 and 582.153 and 2113.12 and 2245.93 and 2084.31 and 208.443 and 322.031 and 2551.61 and 1958.47 and 2254.18 and 2157.45 and 1870.02 and 1903.66
  Latency: 120.153 (7×) and 20.1868 and 53.2199 and 101.501 and 119.653 and 16.016 and 18.5852 and 101.535 and 100.467
Nontransgenic mice; [9]
  Distance: 96.0203 and 1493.55 and 655.096 and 2193.26 and 428.034 and 2346.49 and 668.274 and 682.153 and 2384.94 and 600.87 and 1974.12 and 1289.33 and 2210.56 and 216.348 and 165.502
  Latency: 7.307 and 72.6059 and 29.1291 and 120.153 (6×) and 25.7925 and 43.31 and 33.8338 and 32.666 and 11.8785 and 10.01
Nontransgenic mice; [10]
  Distance: 1924.82 and 804.911 and 451.376 and 688.986 and 824.577 and 691.966 and 1226.74 and 1849.83 and 378.165 and 840.629
  Latency: 96.0961 and 35.7357 and 20.6873 and 46.6467 and 38.0714 and 35.4354 and 120.153 and 97.4308 and 17.4174 and 44.2776
Nontransgenic mice; ISRIB 0.1mpk
  Crossing Frequency: 1 and 2 and 5 and 0 and 4 and 3
Nontransgenic mice; [11]
  Distance: 2065.19 and 2495.79 and 2100.99 and 2299.57 and 1083.65 and 2015.54 and 1762.54 and 1784.58 and 1973.36 and 2419.28 and 2296.21 and 1746.93 and 2593.71 and 2297.94 and 2156.55
  Latency: 120.153 (10×) and 56.5566 and 93.994 and 110.677 and 97.7644 and 92.3257
Nontransgenic mice; [12]
  Distance: 2252.57 and 966.538 and 2215.71 and 2563.77 and 445.101 and 2147.24 and 1156.33 and 1018.37 and 2302.03 and 2270.34 and 1964.61 and 2179.88 and 2576.82 and 1685.38 and 1279.26
  Latency: 119.753 and 49.4828 and 119.686 and 120.153 (6×) and 23.4902 and 55.5555 and 58.6587 and 114.581 and 80.8141 and 66.8669
Nontransgenic mice; [13]
  Distance: 2747.59 and 190.327 and 1538.1 and 2351.74 and 241.5 and 531.856 and 1005.53 and 471.756 and 1003.73 and 604.685 and 1640.73 and 351.494 and 2299.54 and 202.419 and 1735.08
  Latency: 120.153 (5×) and 12.6126 and 98.365 and 13.9807 and 31.4314 and 77.5108 and 25.1251 and 47.047 and 26.9937 and 17.4174 and 12.5459
Nontransgenic mice; ISRIB 0.25mpk
  Crossing Frequency: 6 and 2 and 0 and 3 and 1 and 7
Nontransgenic mice; MWM #1 training, 0.1 and 0.25 mpk
  learning rates to find the hidden platform (latency or distance) vs vehicle: No differences in learning rates
[1]; Morris water maze #1 satellite mice, 0.25 mpk i.p. (1% DMSO/saline), 0.25 mg/kg
  Plasma concentration: 65.3 ng/mL and 71.9 ng/mL
[1]; Morris water maze #2 satellite mice, 0.25 mpk i.p. (1% DMSO/saline), 0.25 mg/kg
  Plasma concentration: 66.6 ng/mL and 65.6 ng/mL
[1]; Morris water maze #2 satellite mice, 2.5 mpk i.p. (DMSO/PEG), 2.5 mg/kg
  Plasma concentration: 657 ng/mL and 348 ng/mL and 286 ng/mL

Reference: publication PMC5075699
